Assay results reported in patent US20190161516A1, “PROTEASOME INHIBITORS” (University of Kentucky Research Foundation, priority 2017, published 2019).

Experiments:
[1] = biological target: T1, X/β5 (Homo sapiens, UniProt P20618+P28074); test: Proteasome activity assay, purified 20S proteasome, Ac-WLA-AMC; type: biochemical
T1 construct: purchased R&D Systems
Protocol: Purified 20S human proteasomes (CP and IP, R&D Systems) were used to assess the in vitro inhibition of proteasome catalytic activity by LMP2 inhibitors. In our 96-well format assays involving a 100 μL total volume, 20S proteasomes (0.5 μg/mL) were incubated with inhibitors or reference compounds (e.g., carfilzomib) in assay buffer (20 mM Tris-HCl, 0.5 mM EDTA, 0.035% SDS) at room temperature for 30 min. Reactions were initiated by the addition of fluorogenic substrates containing the AMC (7-amino-4-methylcoumarin) group. Specifically, the following substrates were used: Suc-LLVY-AMC (CT-L activity, 100 μM), Ac-PAL-AMC (LMP2, 100 μM), Ac-WLA-AMC (β5, 20 μM), Ac-nLPnLD-AMC (β1,100 μM), Ac-RLR-AMC (β2/2i, 20 μM), and Ac-ANW-AMC (β5i, 100 μM). The fluorescence of liberated AMC was measured over a period of 90 min at 360 and 460 nm on a SpectraMax M5 fluorescence plate reader (Molecular Devices). For the proteasome activity of brain tissues isolated from AD mice, tissues were homogenized in RIPA buffer (50 mM Tris Cl, pH 7.4, 150 mM NaCl, 5 mM EDTA, 1% Nonidet P-40, 1% sodium deoxycholate, 0.1% SDS, 1% aprotinin, 50 mM NaF) and sonicated. Samples were centrifuged for 40 min at 14,000×g (4° C.). Protein concentration was determined using the Bradford Assay according to the manufacturer's protocol. […] Fluorescence was recorded for 90 min using a Synergy-HT (Bio Tek) plate reader.

[2] = tested on: Chymotrypsin-like activity (β5/β5i); test: Proteasome inhibitory activity, subunit-specific cell lysate IC50, chymotrypsin-like activity; type: biochemical
[3] = tested on: APPsw transgenic mouse (Tg2576) and LPS-induced mice (ICR strain); test: Morris water maze test in AD mouse models; type: in vivo; conditions: FIG. 12A-12D
Protocol: These two compounds were used to investigate the impacts of LMP2 inhibition on cognitive deficits in two animal models of human Alzheimer's disease (AD). In these AD models, AD develops by Aβ deposition (APPsw transgenic mouse) or lipopolysaccharide (LPS)-induced neuroinflammation. For the APPsw transgenic model, also known as Tg2576, 10-month old APPsw mice were treated i.p. with LMP2 inhibitors twice a week for 3 weeks. […] Once treatments were finished, Morris water maze test was performed. All mice were trained for three times a day for 5 days before the test. The escape latency and distance traveled were recorded on a daily-basis over a 5-day period. […] This supports that the efficacy of LMP2 inhibitors is mediated through LMP2 inhibition. One day after the completion of Morris water maze test, the ability of mouse to maintain memory was evaluated by probe trials. […] Sequentially, a step-through latency test was performed a day after the probe trial. […]
The learning trials were conducted over 5 days, with 4 trials per day, with three randomized starting points. […] Swimming pattern of each mouse was monitored and recorded by a camera mounted above the center of the pool, and the escape latency, escape distance and swimming speed were assessed by the SMART-LD program (Panlab, Spain). […]

[4] = biological target: T2, LMP7/β5i (Homo sapiens, UniProt P20618+P28062); test: Proteasome activity assay, purified 20S proteasome, Ac-ANW-AMC; type: biochemical
T2 construct: purchased R&D Systems
Protocol: Purified 20S human proteasomes (CP and IP, R&D Systems) were used to assess the in vitro inhibition of proteasome catalytic activity by LMP2 inhibitors. […] Reactions were initiated by the addition of fluorogenic substrates containing the AMC (7-amino-4-methylcoumarin) group. Specifically, the following substrates were used: Suc-LLVY-AMC (CT-L activity, 100 μM), Ac-PAL-AMC (LMP2, 100 μM), Ac-WLA-AMC (β5, 20 μM), Ac-nLPnLD-AMC (β1,100 μM), Ac-RLR-AMC (β2/2i, 20 μM), and Ac-ANW-AMC (β5i, 100 μM). The fluorescence of liberated AMC was measured over a period of 90 min at 360 and 460 nm on a SpectraMax M5 fluorescence plate reader (Molecular Devices). For the proteasome activity of brain tissues isolated from AD mice, tissues were homogenized in RIPA buffer (50 mM Tris Cl, pH 7.4, 150 mM NaCl, 5 mM EDTA, 1% Nonidet P-40, 1% sodium deoxycholate, 0.1% SDS, 1% aprotinin, 50 mM NaF) and sonicated. Samples were centrifuged for 40 min at 14,000×g (4° C.). Protein concentration was determined using the Bradford Assay according to the manufacturer's protocol. Finally, samples were loaded onto a 96-well plate followed by the addition of the substrate (Ac-PAL-AMC) at 37° C. Fluorescence was recorded for 90 min using a Synergy-HT (Bio Tek) plate reader.

IC50 [1]: > 10 µM | IC50 [2]: > 10 µM | IC50 [4]: > 10 µM
SMILES: CC(=O)NCC(=O)N1CCC[C@H]1C(=O)N[C@@H](Cc1ccccc1)C(=O)N[C@@H](CC(C)C)C(=O)[C@@]1(C)CO1 [YU102]
cognitive deficits in the APPsw mice [3]: ameliorates cognitive deficits
